# Square brackets hold non-standard residues; d marks the D form. Peptide text beside a SMILES is read from it. AEEA = NCCOCCOCC(=O)O
# Legend:
# HSV-1 [1] = assay: Attachment (adsorption) assay in TIGKs cells; assay type: cell-based, herpes simplex virus type 1; settings: 15 μg/ml present only during infection, 2 h at 4°C, 48 h
# Protocol: (§1) HSV-1 stocks were generated by infecting Vero E6 cells. Cells were lysed at 48 h p.i. by two freeze-thaw cycles. The virus containing fluid was aliquoted and stored at −80°C. A control Vero E6 cell lysate from mock-infected cells was prepared in the same manner as the virus stock. Virus yield was assessed by virus titration on fully confluent Vero E6 cells in 96-well plates, according to the method of Reed & Muench ([32]). Plates were incubated at 37°C for 48 h and the occurrence of a cytopathic effect was scored using an inverted microscope, and TCID50 (50% tissue culture infection dose) was calculated.
# TIGKs cells were seeded in 12-well plates and cultured for 48 h. Next, keratinocytes were infected with HSV-1 (TCID50 400 /ml) or treated with mock in the presence of DAL-PEG-LK6 or CPP1-PEG-LK6 (15 μg/ml) for 2 h at 4°C. […] Next, samples were collected, and viral yield was determined using titration and qPCR.
# (§2) Viral DNA was isolated from the conditioned media or the apical washes of inserts (OTG model) using Viral DNA/RNA Isolation Kit (A&A Biotechnology). The virus yield assessed by quantitative real-time PCR (qPCR). […] DNA quantification standards were prepared. […] The number of copies per mL was estimated after the concentration of linearized DNA was assessed spectrophotometrically.
# HSV-1 [2] = assay: Virus inhibition (replication) assay in Vero E6 and TIGKs cells, qPCR, titration, gB Western blot; assay type: cell-based, herpes simplex virus type 1; settings: 48 h p.i.
# Protocol: as §1
# Vero E6 or TIGKs cells were seeded in 12-well plates and cultured for 48 h. […] After 30 min of incubation at 37°C, cells were infected with HSV-1 at TCID50 400 /ml or treated with mock. After 2 h of infection at 37°C, unbound viral particles were removed by washing with PBS, and culture media supplemented with peptide conjugates were applied. Following 48 h of incubation, media were collected, and the quantity of HSV-1 DNA copies was assessed using titration and qPCR.
# Viral DNA was isolated from the conditioned media or the apical washes of inserts (OTG model) using Viral DNA/RNA Isolation Kit (A&A Biotechnology). The virus yield assessed by quantitative real-time PCR (qPCR). The reaction was carried out in a CFX96 Touch Real-Time PCR Detection System (Bio-Rad), in a 10 μl reaction mixture consisting of TaqMan^TM Fast Advanced Master Mix, TaqMan^TM Microbe Detection assay against HSV-1 (Vi04230116_s1) and 1 μl of viral DNA. The temperature profile was 10 s at 95°C, followed by 40 cycles of 3 s at 95°C and 20 s at 60°C. DNA quantification standards were prepared. In summary, a fragment of viral DNA was amplified using the primers listed above and cloned into the pTZ57R/T plasmid using the InsTAclone PCR cloning kit. The plasmid was propagated in E. coli, purified with the GeneJet Plasmid Miniprep Kit, and digested with the EcoR1 restriction enzyme. The number of copies per mL was estimated after the concentration of linearized DNA was assessed spectrophotometrically.
# Protein extracts were prepared using lysis buffer (0.25% Na-deoxycholate, 0.5% Nonidet P-40, 0.05% SDS, protease inhibitor mixture, 2.5 mM EDTA in PBS), and the protein concentration was assessed using Pierce BCA (Thermo Fisher) protein assay kit. Equal amounts of cell extracts were separated on 10% SDS-PAGE gel and electrotransferred onto polyvinylidene difluoride membranes for gB and β-actin in transfer buffer (25 mM Tris, 0.2 M glycine, and 20% ethanol) for 90 min at 100 V. Nonspecific binding sites were blocked for 90 min in 5% skimmed milk prepared in TBST buffer (20 mM Tris, pH 7.5, 0.5 M NaCl, 0.05% Tween 20). Membranes were further incubated overnight at 4°C with primary antibodies: mouse anti-HSV-1 + HSV-2 gB (1:5000; abcam) and mouse anti-β-actin (1:4,000; BD Biosciences). The following day, membranes were washed three times with TBST buffer and incubated with HRP-conjugated secondary antibodies for 60 min at 37°C: goat anti-mouse IgG (1:20,000; β-actin; BD Bioscience) or sheep anti-mouse IgG (1:50,000; gB; Sigma Aldrich). Next, blots were washed five times for 5 min in TBST buffer, developed using Luminata Cresecendo Substarte (Merck) and exposed to AGFA medical x-ray film. Densitometry analysis was performed using ImageJ 1.52q software.
# [3] = Azure A metachromatic assay; assay type: binding; settings: HS 0.2 mg/ml, Azure A 23 μg/ml, peptide 1–300 μg/ml, 15 min at RT
# Protocol: The possible interaction of peptide conjugate with HS was investigated by incubation the mixtures containing a constant concentration of HS (0.2 mg/ml, Sigma Aldrich) and solutions of CPP1-PEG-LK6 at different concentrations (1–300 μg/ml). Next, the mixtures were shaken for 15 min at room temperature. […] Azure A, a cationic dye when binding to heparin and/or HS changes its adsorption spectrum ([35]).
# [4] = system: HSV-1 clinical strains (294.1, 615.9, C08R, C10B); assay: Viral replication assay with HSV-1 clinical strains; assay type: cell-based, herpes simplex virus type 1; settings: 15 μg/ml, qPCR 48 h p.i.
# Protocol: HSV-1 strain F was acquired from American Type Culture Collection (VR 733). Clinical isolates of HSV-1 (294.1, 615.9, C08R, C10B) were kindly provided by Donald M. Coen from Department of Biological Chemistry and Molecular Pharmacology, Harvard Medical School, Boston. HSV-1 strains were propagated and titrated on Vero cells.
# Vero E6 or TIGKs cells were seeded in 12-well plates and cultured for 48 h. Next, the medium was removed and replaced with a fresh medium supplemented with DAL-PEG-LK6 and CPP1-PEG-LK6 (15 μg/ml). After 30 min of incubation at 37°C, cells were infected with HSV-1 at TCID50 400 /ml or treated with mock. After 2 h of infection at 37°C, unbound viral particles were removed by washing with PBS, and culture media supplemented with peptide conjugates were applied. Following 48 h of incubation, media were collected, and the quantity of HSV-1 DNA copies was assessed using titration and qPCR.
# as §2
# HSV-1 [5] = settings: concentration reducing viral replication by 50%; TIGKs cells pre-treated, infected and cultivated with compound; qPCR; mean of two independent experiments
# Protocol: Data were expressed as means ± SD. Statistical significance was determined using unpaired t-test, one-way ANOVA, and/or two-way ANOVA for direct comparisons between single groups. A p-value <0.05 was considered statistically significant. We used GrapPad Prism 10 software for the analyses. […]
# Protocol for in vitro: The viability of Vero E6 and TIGKs cells was examined by the XTT Cell Viability Assay kit (Biological Industries, USA). Briefly, cells were treated with indicated concentrations of the peptide conjugates for 48 h at 37°C. Next, the fresh medium was added to the cells and 50 μl of the activated XTT reagent [2,3-bis(2-methoxy-4-nitro-5-sulphenyl)-2H-tetrazolium-5-carboxanilide] was added and further incubated for 2 h at 37°C. Absorbance was measured at a wavelength of 480 nm using FlexStation 3 microplate reader (Molecular Device, Wokingham, UK). The results were expressed normalized against a control of untreated cells (100% viability). To assess the effect of peptide conjugate on the integrity of the plasma membrane, the LDH release assay was performed using the CytoTox96 nonradioactive cytotoxicity assay kit (Promega, Madison, WI, USA) according to the manufacturer's instructions. Cytotoxicity was calculated with the formula: % cytotoxicity = 100 × (experimental LDH release/ maximum LDH release), where maximum LDH release is after lysis solution addition (Triton X-100). Relative amounts of LDH release were measured (absorbance at 490 nm) using FlexStation 3 microplate reader (Molecular Device, Wokingham, UK). […]
# Data were expressed as means ± SD. Statistical significance was determined using unpaired t-test, one-way ANOVA, and/or two-way ANOVA for direct comparisons between single groups. […]
smiles,measurement,setting,value
CC[C@H](C)[C@H](NC(=O)COCCOCCNC(=O)[C@@H](NC(=O)[C@H](CC(C)C)NC(=O)[C@H](Cc1ccc(O)cc1)NC(=O)[C@@H](NC(=O)[C@H](Cc1ccccc1)NC(=O)[C@@H]1CCCN1)C(C)C)[C@@H](C)CC)C(=O)N[C@@H](CCCCN)C(=O)N[C@@H](CCCCN)C(=O)N[C@H](C(=O)N[C@@H](CC(C)C)C(=O)N[C@@H](CO)C(=O)N[C@@H](CCCCN)C(=O)N[C@H](C(=O)N[C@@H](CCCCN)C(=O)N[C@@H](CCCCN)C(=O)N[C@@H](CC(C)C)C(=O)N[C@@H](CC(C)C)C(=O)N[C@@H](CCCCN)C(N)=O)[C@@H](C)CC)[C@@H](C)CC [CPP1-PEG-LK6] (H-PFVYLI[AEEA]IKKILSKIKKLLK-NH2),CC50 at 48 h,in vitro,23.4 µg/mL
same,"decrease in viral yield, attachment assay, qPCR",HSV-1 [1]; Figure 2D,~95%
same,"decrease in viral titer, attachment assay, titration",HSV-1 [1]; Figure 2E,~97%
same,expression level of gB (Western blot),"HSV-1 [2]; 15 μg/ml before, during and after infection, normalized to β-actin, cell line not stated",significantly suppressed the expression level of gB
same,reduction in viral yield in the qPCR test,"HSV-1 [2]; Figure 1C, Vero E6 (DAL-PEG-LK6 and CPP1-PEG-LK6 25 μg/ml; CPP2-PEG-LK6 10 μg/ml) and TIGKs cells (15 μg/ml)",3 log
same,reduction of virus replication in titration assay,"HSV-1 [2]; Figure 1D, both cell models (Vero E6, TIGKs), normalized to untreated control",over 99%
same,"interaction with heparan sulfate (Azure A release, absorbance at 630 nm)",[3],releases Azure A from HS
same,activity against HSV-1 clinical strains,[4]; Figure 4,inhibits all selected HSV-1 clinical strains
same,inhibition of replication of clinical strains,"[4]; all tested strains: 294.1, C08R (drug-sensitive), 615.9, C10B (drug-resistant)",~3 logs
same,IC50,HSV-1 [5],0.942 µg/mL

# — PMC11215077, “Antiviral activity of temporin-1CEb analogues against gingival infection with herpes simplex virus type 1” (Frontiers in Oral Health, 2024)
